Reference: patent US10611731B2, “5-methyl-6-phenyl-4,5-dihydro-2H-pyridazin-3-one derivative” (OTSUKA PHARMACEUTICAL CO., LTD., priority 2016, dated 2020)

System: human childhood brain tumor cell lines (PFSK-1)
Experiment: Growth inhibitory activity against PFSK-1 cells (WST-8, Cell Counting Kit-8)
Format: cell-based
Settings: Homo sapiens, 72 h, 3 days incubation with test compound, WST-8 OD 450/630 nm, read-out: IC50 (concentration inhibiting 50% of the cell growth)
Method: The growth inhibitory activity against human childhood brain tumor cell lines (PFSK-1) was measured with WST-8 reagent [2-(2-methoxy-4-nitrophenyl)-3-(4-nitrophenyl)-5-(2,4-disulfophenyl)-2H-tetrazolium monosodium salt, Cell Counting Kit-8™], according to the method described in Tominaga, H. et al., Anal. Commun., 1999, 36, 47-50. Briefly, PFSK-1 was seeded in 96-well microplate at 100 μL/well with Roswell Park Memorial Institute (RPMI) 1640 medium containing 10% fetal bovine serum (FBS), and the cells were incubated in the presence of 5% carbon dioxide (CO2) at 37° C. for 24 hours. 50 μL of each test compound diluted with the medium was added to each well, and then the cells were incubated further for 3 days. After the incubation, 15 μL of Cell Counting Kit-8™ was added to each well, and the cells were incubated for one and half hours. Then, optical density (OD) values at measurement wavelength 450 nm and reference wavelength 630 nm were measured and the difference thereof was calculated. From the calculated difference, the OD value difference (at measurement wavelength 450 nm and reference wavelength 630 nm) of the control well which includes no cell was subtracted to afford cell-growth activity in each well.
The cell growth inhibitory activity of each test compound was calculated by comparing the cell-growth activity with each test compound to the cell-growth activity without any test compound (control), and each IC50 (nM) which is the concentration inhibiting 50% of the cell growth was calculated.

Structure (SMILES)	IC50 [nM]
Cc1cc(C2=NNC(=O)CC2C)cc(Cl)c1OCC1(O)CC1 (stereo not shown) [Example 44, 6-{3-chloro-4-[(1-hydroxycyclopropyl)methoxy]-5-methylphenyl}-5-methyl-4,5-dihydro-2H-pyridazin-3-one]	1
Cc1cc(C2=NNC(=O)CC2C)cc(F)c1OCC1(O)CC1 (stereo not shown) [Example 45, 6-{3-Fluoro-4-[(1-hydroxycyclopropyl)methoxy]-5-methylphenyl}-5-methyl-4,5-dihydro-2H-pyridazin-3-one]	7.2
Cc1c(OCC2(O)CC2)ccc(C2=NNC(=O)CC2C)c1F (stereo not shown) [Example 46, 6-{2-Fluoro-4-[(1-hydroxycyclopropyl)methoxy]-3-methylphenyl}-5-methyl-4,5-dihydro-2H-pyridazin-3-one]	3.9
CC1CC(=O)NN=C1c1ccc(OCC2(O)CC2)c(Cl)c1F (stereo not shown) [Example 47, 6-{3-chloro-2-fluoro-4-[(1-hydroxycyclopropyl)methoxy]phenyl}-5-methyl-4,5-dihydro-2H-pyridazin-3-one]	2.4
CC(O)COc1ccc(C2=NNC(=O)CC2C)c(F)c1Br (stereo not shown) [Example 48, 6-[3-bromo-2-fluoro-4-(2-hydroxypropoxy)phenyl]-5-methyl-4,5-dihydro-2H-pyridazin-3-one]	0.9
CC(O)COc1ccc(C2=NNC(=O)CC2C)c(F)c1F (stereo not shown) [Example 49, 6-[2,3-Difluoro-4-(2-hydroxypropoxy)phenyl]-5-methyl-4,5-dihydro-2H-pyridazin-3-one]	2.8
CC(O)COc1c(F)cc(C2=NNC(=O)CC2C)cc1Br (stereo not shown) [Example 50, 6-[3-Bromo-5-fluoro-4-(2-hydroxypropoxy)phenyl]-5-methyl-4,5-dihydro-2H-pyridazin-3-one]	2.9
Cc1cc(C2=NNC(=O)CC2C)cc(C)c1OCC(C)O (stereo not shown) [Example 51, 6-[4-(2-Hydroxypropoxy)-3,5-dimethylphenyl]-5-methyl-4,5-dihydro-2H-pyridazin-3-one]	5.5
CC(O)COc1c(F)cc(C2=NNC(=O)CC2C)cc1Cl (stereo not shown) [Example 52, 6-[3-Chloro-5-fluoro-4-(2-hydroxypropoxy)phenyl]-5-methyl-4,5-dihydro-2H-pyridazin-3-one]	3.8
CC(O)COc1c(Cl)cc(C2=NNC(=O)CC2C)cc1Cl (stereo not shown) [Example 53, 6-[3,5-dichloro-4-(2-hydroxypropoxy)phenyl]-5-methyl-4,5-dihydro-2H-pyridazin-3-one]	1.9
CC(O)COc1ccc(C2=NNC(=O)CC2C)c(F)c1Cl (stereo not shown) [Example 54, 6-[3-chloro-2-fluoro-4-(2-hydroxypropoxy)phenyl]-5-methyl-4,5-dihydro-2H-pyridazin-3-one]	0.5
Cc1cc(C2=NNC(=O)CC2C)cc(Cl)c1OCC(C)O (stereo not shown) [Example 55, 6-[3-chloro-4-(2-hydroxypropoxy)-5-methylphenyl]-5-methyl-4,5-dihydro-2H-pyridazin-3-one]	1.9
Cc1cc(C2=NNC(=O)CC2C)cc(F)c1OCC(C)O (stereo not shown) [Example 56, 6-[3-Fluoro-4-(2-hydroxypropoxy)-5-methylphenyl]-5-methyl-4,5-dihydro-2H-pyridazin-3-one]	7.6
CC(O)COc1c(Cl)cc(C2=NNC(=O)CC2C)cc1Br (stereo not shown) [Example 57, 6-[3-bromo-5-chloro-4-(2-hydroxypropoxy)phenyl]-5-methyl-4,5-dihydro-2H-pyridazin-3-one]	< 1
Cc1c(OCC(C)O)ccc(C2=NNC(=O)CC2C)c1F (stereo not shown) [Example 58, 6-[2-Fluoro-4-(2-hydroxypropoxy)-3-methylphenyl]-5-methyl-4,5-dihydro-2H-pyridazin-3-one]	2.8
C=Cc1c(OCC(C)O)ccc(C2=NNC(=O)CC2C)c1F (stereo not shown) [Example 59, 6-[2-fluoro-4-(2-hydroxypropoxy)-3-vinylphenyl]-5-methyl-4,5-dihydro-2H-pyridazin-3-one]	2.2

Structure (SMILES)	IC50 [nM]
CCc1c(OCC(C)O)ccc(C2=NNC(=O)CC2C)c1F (stereo not shown) [Example 60, 6-[3-Ethyl-2-fluoro-4-(2-hydroxypropoxy)phenyl]-5-methyl-4,5-dihydro-2H-pyridazin-3-one]	4.7
CCC(O)COc1ccc(C2=NNC(=O)CC2C)c(F)c1F (stereo not shown) [Example 61, 6-[2,3-Difluoro-4-(2-hydroxybutoxy)phenyl]-5-methyl-4,5-dihydro-2H-pyridazin-3-one]	4.7
CCC(O)COc1c(F)cc(C2=NNC(=O)CC2C)cc1Cl (stereo not shown) [Example 62, 6-[3-Chloro-5-fluoro-4-(2-hydroxybutoxy)phenyl]-5-methyl-4,5-dihydro-2H-pyridazin-3-one]	8.9
CCC(O)COc1c(Cl)cc(C2=NNC(=O)CC2C)cc1Cl (stereo not shown) [Example 63, 6-[3,5-Dichloro-4-(2-hydroxybutoxy)phenyl]-5-methyl-4,5-dihydro-2H-pyridazin-3-one]	5
CCC(O)COc1ccc(C2=NNC(=O)CC2C)c(F)c1Cl (stereo not shown) [Example 64, 6-[3-chloro-2-fluoro-4-(2-hydroxybutoxy)phenyl]-5-methyl-4,5-dihydro-2H-pyridazin-3-one]	2.1
CCC(O)COc1c(C)cc(C2=NNC(=O)CC2C)cc1Cl (stereo not shown) [Example 65, 6-[3-Chloro-4-(2-hydroxybutoxy)-5-methylphenyl]-5-methyl-4,5-dihydro-2H-pyridazin-3-one]	4.3
CCC(O)COc1c(Cl)cc(C2=NNC(=O)CC2C)cc1Br (stereo not shown) [Example 66, 6-[3-Bromo-5-chloro-4-(2-hydroxybutoxy)phenyl]-5-methyl-4,5-dihydro-2H-pyridazin-3-one]	4.1
C=Cc1c(OCC(O)CC)ccc(C2=NNC(=O)CC2C)c1F (stereo not shown) [Example 67, 6-[2-Fluoro-4-(2-hydroxybutoxy)-3-vinylphenyl]-5-methyl-4,5-dihydro-2H-pyridazin-3-one]	3.6
CC1CC(=O)NN=C1c1cc(F)c(OCC(C)(C)CO)c(Br)c1 (stereo not shown) [Example 69, 6-[3-bromo-5-fluoro-4-(3-hydroxy-2,2-dimethylpropoxy)phenyl]-5-methyl-4,5-dihydro-2H-pyridazin-3-one]	1.2
CC1CC(=O)NN=C1c1ccc(OCC(C)(C)CO)c(Br)c1F (stereo not shown) [Example 70, 6-[3-Bromo-2-fluoro-4-(3-hydroxy-2,2-dimethylpropoxy)phenyl]-5-methyl-4,5-dihydro-2H-pyridazin-3-one]	5.3
Cc1cc(C2=NNC(=O)CC2C)cc(C)c1OCC(C)(C)CO (stereo not shown) [Example 71, 6-[4-(3-Hydroxy-2,2-dimethylpropoxy)-3,5-dimethylphenyl]-5-methyl-4,5-dihydro-2H-pyridazin-3-one]	3.9
Cc1cc(C2=NNC(=O)CC2C)cc(Cl)c1OCC(C)(C)CO (stereo not shown) [Example 72, 6-[3-chloro-4-(3-hydroxy-2,2-dimethylpropoxy)-5-methylphenyl]-5-methyl-4,5-dihydro-2H-pyridazin-3-one]	0.9
Cc1c(OCC(C)O)ccc(C2=NNC(=O)CC2C)c1O (stereo not shown) [Example 74, 6-[2-hydroxy-4-(2-hydroxypropoxy)-3-methylphenyl]-5-methyl-4,5-dihydro-2H-pyridazin-3-one]	4.1
CC(O)COc1ccc(C2=NNC(=O)CC2C)c(O)c1Cl (stereo not shown) [Example 75, 6-[3-Chloro-2-hydroxy-4-(2-hydroxypropoxy)phenyl]-5-methyl-4,5-dihydro-2H-pyridazin-3-one]	3.2
CC1CC(=O)NN=C1c1ccc(OC/C=C\CO)c(Cl)c1F (stereo not shown) [Example 76, 6-{3-chloro-2-fluoro-4-[(Z)-4-hydroxy-2-butenyloxy]phenyl}-5-methyl-4,5-dihydro-2H-pyridazin-3-one]	2.7
